According to US4876260A, “Oxathiolanes” (State of Israel, Israel Institute of Biological Research, priority 1988, dated 1989):

How the values were obtained:
[1] = target: T1, M1 muscarinic receptors (3H-PZ sites, forebrain) (Rattus norvegicus, UniProt P08482); test: Displacement of 3H-Pirenzepine (3H-PZ, selective M1 antagonist) from rat forebrain homogenate; format: binding; conditions: for M1 selectivity (in words): from Tables 2A, 2B, 2C
T1 sequence (P08482 1-460): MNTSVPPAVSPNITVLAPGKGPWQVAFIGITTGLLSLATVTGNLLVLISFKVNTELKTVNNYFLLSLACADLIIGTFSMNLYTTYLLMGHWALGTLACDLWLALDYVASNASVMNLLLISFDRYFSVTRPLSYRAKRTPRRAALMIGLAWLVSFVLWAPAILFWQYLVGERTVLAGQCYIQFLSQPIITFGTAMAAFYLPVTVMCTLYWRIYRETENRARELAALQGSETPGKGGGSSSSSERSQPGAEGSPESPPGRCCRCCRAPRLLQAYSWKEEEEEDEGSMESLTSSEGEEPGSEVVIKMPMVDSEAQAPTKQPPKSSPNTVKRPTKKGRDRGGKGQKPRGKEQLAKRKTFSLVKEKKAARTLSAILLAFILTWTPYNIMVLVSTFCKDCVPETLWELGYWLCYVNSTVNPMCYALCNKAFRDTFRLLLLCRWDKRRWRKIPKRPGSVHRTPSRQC

[2] = target: muscarinic receptors (3H-QNB sites, M1 and M2, forebrain); format: binding, rat; conditions: (b) forebrain
[3] = target: muscarinic receptors (3H-CD sites, frontal cortex); test: Displacement of 3H-CD from rat frontal cortex homogenate; format: binding; conditions: (c') frontal cortex
[4] = test system: ACh-induced contractions of guinea-pig ileum; test: Blocking of ACh-induced contractions of isolated guinea-pig ileum; conditions: listed as AF122B
Excerpt: (§1) From this Table, it appears that compounds (III) were not so effective in contracting the guinea pig ileum preparation.

[5] = test system: isolated guinea-pig ileum; test: Contraction of isolated guinea-pig ileum preparation
Excerpt: as §1

[6] = target: T2, M1 muscarinic receptors (3H-PZ sites, frontal cortex) (Rattus norvegicus, UniProt P08482); test: Displacement of 3H-PZ from rat frontal cortex homogenate; format: binding; conditions: for Ki: (a') frontal cortex, read-out: Ki(3H-PZ); for a':c', Ki(3H-PZ):Ki(3H-CD): (g) frontal cortex ratio
T2 sequence (P08482 1-460): T1 sequence (P08482 1-460)

[7] = target: muscarinic receptors (3H-QNB sites, frontal cortex); format: binding, rat; conditions: (b') frontal cortex
mice = test: Pharmacodynamic profile and general toxicity in mice; format: in vivo, CD-1 mice
Procedure: Male white mice of the CD-1 strain supplied by Charles River Ltd. (U.K.) were used throughout. An acclimatization period of at least three days was allowed between arrival and commencement of a particular experimental series. The animals were fed a complete commercial pelleted rodent diet without restriction during the acclimatization and study periods. Animals had free access to tap water. Body weights during testing were mostly within 20-28 g.
Test materials were prepared as aqueous solutions in physiological saline (0.9% NaCl), up to a maximum concentration of 10 mg./ml. All materials were freshly prepared on the morning prior to each dosing session. Dosages were expressed gravimetrically (mg./kg.), in terms of the materials as received.
Groups of mice (mostly n=5) received either i.v. or oral administration of the test materials at various dose levels. Dose volumes appropriate for respective dose levels selected, were determined for each animal according to body weights on the day of dosing. Any behavioral changes occurring during one to two hours after administration, as well as incidence of death up to 24 hours after dosing were recorded.

[8] = target: T3, muscarinic receptors (3H-QNB sites, cerebellum, mainly M2) (Rattus norvegicus, UniProt P10980); test: biochemical; format: binding; conditions: Ki(3H-QNB), (b") cerebellum
T3 sequence (P10980 1-466): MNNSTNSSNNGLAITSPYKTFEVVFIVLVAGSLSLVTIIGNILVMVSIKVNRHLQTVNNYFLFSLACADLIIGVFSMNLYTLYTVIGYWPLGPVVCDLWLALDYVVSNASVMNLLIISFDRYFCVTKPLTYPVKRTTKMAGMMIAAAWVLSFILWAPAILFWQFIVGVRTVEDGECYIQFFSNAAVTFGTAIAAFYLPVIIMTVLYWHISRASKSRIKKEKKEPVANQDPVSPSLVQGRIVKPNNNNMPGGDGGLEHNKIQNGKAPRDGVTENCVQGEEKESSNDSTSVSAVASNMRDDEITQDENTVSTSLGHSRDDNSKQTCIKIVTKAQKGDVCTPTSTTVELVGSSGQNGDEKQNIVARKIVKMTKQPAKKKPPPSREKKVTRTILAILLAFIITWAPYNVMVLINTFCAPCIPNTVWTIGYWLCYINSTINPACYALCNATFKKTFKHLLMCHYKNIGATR

[9] = test system: muscarinic receptors (3H-QNB sites, cerebellum, mainly M2); test: biochemical; format: binding, rat; conditions: for b':b": (k) Ki(3H-QNB) frontal cortex : Ki(3H-QNB) cerebellum
[10] = test system: AF64A-induced cognitive impairment (passive avoidance); test: Step-through passive avoidance in AF64A- and saline-injected rats; format: in vivo; conditions: for Retention Latency: 72 hour retention test
Excerpt: Development of potential drugs for the treatment of Alzheimer's disease requires their evaluation in appropriate animal models for this disease. […] This hippocampal cholinergic deficiency is accompanied by statistically significant cognitive impairments (inter alia) in step-through passive avoidance (PA). The present PA experiment investigated the possibility of reversing such impairments by administration of (+)-III (AF122B).
[…] post-operation, the AF64A and saline-injected groups were randomly subdivided into two treatment sub-groups. Sub-group 1 was treated with 1 mg./kg. i.p. (+)-III (AF122B), while sub-group 2 was treated with […]. i.p. saline. The drug or saline were administered immediately after shock.

[11] = 25 mg/kg i.v., listed as (±)-III AF122B
[12] = 100 mg/kg i.v., immed = immediately
[13] = 100 mg/kg p.o., listed as (±)-III AF122B
[14] = 200 mg/kg p.o., listed as (±)-III AF122B
[15] = 10 mg/kg i.v., listed as (+)-III AF122B
[16] = 25 mg/kg i.v., listed as (+)-III AF122B
[17] = 50 mg/kg i.v., listed as (+)-III AF122B
[18] = 200 mg/kg p.o., listed as (+)-III AF122B
[19] = AF64A-injected rats, 1 mg./kg. i.p.
[20] = saline-injected rats, 1 mg./kg. i.p.

## CC1OCC2(CN3CCC2CC3)S1 (stereo not shown) [compound 7, 2-methylspiro(1,3-oxathiolan-4,3')quinuclidine]
[1]
  a:b, Ki(3H-PZ):Ki(3H-QNB): 0.17
[1]; (a) forebrain
  Ki: 1.22 ± 0.4 µM
[1]; listed as Compound (III)
  M1 selectivity (in words): M1 selectivity is preserved even in the mixture of the geometrical isomers
[2]
  Ki: 7 ± 0.5 µM

## CC1OCC2(CN3CCC2CC3)S1 (stereo not shown) [compound 8, 2-methylspiro(1,3-oxathiolan-4,3')quinuclidine]
[3]
  Ki: 2.3 µM
[4]
  Effect on ACh-induced contractions (in words): consistently blocked ACh-induced contractions
[5]
  Desensitization: desensitization that was observed
[5]; listed as AF122B
  Blocking of the contractions by atropine (remarks): the contractions were only partially blocked by atropine
  Contraction of guinea pig ileum (in words): contracted the ileum muscle
[6]
  a':b', Ki(3H-PZ):Ki(3H-QNB): 0.11
  Ki: 1.66 ± 0.24 µM
  a':c', Ki(3H-PZ):Ki(3H-CD): 0.7
[7]
  Ki: 15.3 ± 2.2 µM
mice; 10 mg/kg i.v., listed as (±)-III AF122B
  Mortality, No. dead/total treated: 0/3
mice; [11]
  Analgesia (nonresponsiveness to tail pinch), No. affected/total treated: 2/5
  Convulsive seizures, No. affected/total treated: 5/5
  Exophthalmus, No. affected/total treated: 2/5
  Mortality, No. dead/total treated: 3/5
  Respiratory distress, No. affected/total treated: 2/5
  Tremors, No. affected/total treated: 5/5
mice; 50 mg/kg i.v.
  Convulsive seizures, No. affected/total treated: 2/2
  Mortality, No. dead/total treated: 2/2
  Mortality, time after drug administration: 5 s
  Tremors, No. affected/total treated: 2/2
mice; 50 mg/kg p.o.
  Mortality, No. dead/total treated: 0/5
mice; 100 mg/kg i.v.
  Mortality, No. dead/total treated: 2/2
mice; [12]
  Mortality, time after drug administration: immed
mice; 100 mg/kg p.o.
  Analgesia (nonresponsiveness to tail pinch), No. affected/total treated: 4/4
  Convulsive seizures, No. affected/total treated: 4/4
  Vocalization, No. affected/total treated: 1/4
mice; [13]
  Mortality, No. dead/total treated: 1/4
  Tremors, No. affected/total treated: 4/4
mice; 100 mg/kg p.o., m = minutes
  Mortality, time after drug administration: 15 m
mice; 200 mg/kg p.o.
  Analgesia (nonresponsiveness to tail pinch), No. affected/total treated: 4/4
  Respiratory distress, No. affected/total treated: 4/4
  Vocalization, No. affected/total treated: 2/4
mice; [14]
  Convulsive seizures, No. affected/total treated: 4/4
  Mortality, No. dead/total treated: 4/4
  Tremors, No. affected/total treated: 4/4
mice; 200 mg/kg p.o., m = minutes
  Mortality, time after drug administration: 15 m
[8]
  Ki: 21.1 ± 7.6 µM
[9]
  b':b": 0.73

## CC1OCC2(CN3CCC2CC3)S1 (single isomer, unassigned) [compound 10, 2-methylspiro(1,3-oxathiolan-4,3')quinuclidine]
[5]; listed as (+)-AF122B
  Contraction of guinea pig ileum (in words): active enantiomer
[6]
  Ki: 7.4 µM
mice; 10 mg/kg i.v.
  Convulsive seizures, No. affected/total treated: 2/8
  Mortality, time after drug administration: 5 s
  Respiratory distress, No. affected/total treated: 1/8
  Tremors, No. affected/total treated: 2/8
mice; [15]
  Analgesia (nonresponsiveness to tail pinch), No. affected/total treated: 5/8
  Mortality, No. dead/total treated: 1/8
mice; [16]
  Convulsive seizures, No. affected/total treated: 5/5
  Mortality, No. dead/total treated: 4/5
  Mortality, time after drug administration: 30 s
  Respiratory distress, No. affected/total treated: 1/5
  Tremors, No. affected/total treated: 4/5
mice; [17]
  Mortality, No. dead/total treated: 2/2
  Mortality, time after drug administration: 5 s
mice; [12]
  Mortality, time after drug administration: immed
mice; 100 mg/kg i.v., listed as (+)-III AF122B
  Mortality, No. dead/total treated: 2/2
mice; 100 mg/kg p.o.
  Analgesia (nonresponsiveness to tail pinch), No. affected/total treated: 5/5
  Respiratory distress, No. affected/total treated: 1/5
  Vocalization, No. affected/total treated: 1/4
mice; 100 mg/kg p.o., listed as (+)-III AF122B
  Mortality, No. dead/total treated: 0/5
mice; 200 mg/kg p.o.
  Tremors, No. affected/total treated: 3/5
mice; [18]
  Altered motor activity: a+h
  Analgesia (nonresponsiveness to tail pinch), No. affected/total treated: 5/5
  Convulsive seizures, No. affected/total treated: 5/5
  Mortality, No. dead/total treated: 0/5
  Respiratory distress, No. affected/total treated: 4/5
  Vocalization, No. affected/total treated: 2/5
[10]; [19]
  Passive avoidance retention (in words): improved the passive avoidance retention of AF64A-injected rats
  Retention Latency: 549.5 ± 29.1 s
[10]; AF64A-injected rats, 1 mg./kg. i.p., p<0.01
  Effect on retention latency (in words): prolonged the retention latency of AF64A-injected rats
[10]; between any of the groups
  Initial latency (training) (in words): No significant differences were found during training
[10]; [20]
  Effect on retention latency (in words): no significant effect on the retention latency of saline-injected rats
  Retention Latency: 552 ± 33.7 s

## C[C@H]1O[C@@]2(CN3CCC2CC3)CS1(=O)=O (relative stereo) [compound 14, cis-2-methylspiro(1,3-oxathiolan-5,3')quinuclidine-3,3-dioxide]
[3]
  Ki: 3.06 ± 2 µM
[1]; compared with (±)-cis-(II)
  potency (in words): losing some of its potency
[1]
  M1 selectivity (in words): high M1 selectivity
[1]; listed as (±)-cis-(II)-sulfone
  M1 selectivity (in words): still preserved an outstanding profile as judged by its M1 selectivity (ratio a':c')
[6]
  a':b', Ki(3H-PZ):Ki(3H-QNB): 0.18
  Ki: 5.5 ± 0.43 µM
  a':c', Ki(3H-PZ):Ki(3H-CD): 1.8
[7]
  Ki: 34.1 ± 3 µM
mice; 50 mg/kg i.v.
  Analgesia (nonresponsiveness to tail pinch), No. affected/total treated: 3/5
  Mortality, No. dead/total treated: 0/5
mice; 100 mg/kg i.v.
  Analgesia (nonresponsiveness to tail pinch), No. affected/total treated: 5/5
  Mortality, No. dead/total treated: 0/5
mice; 100 mg/kg p.o.
  Mortality, No. dead/total treated: 0/5
mice; 200 mg/kg p.o.
  Analgesia (nonresponsiveness to tail pinch), No. affected/total treated: 5/5
  Mortality, No. dead/total treated: 0/5
[8]
  Ki: 44.1 ± 6.5 µM
[9]; (i) Ki(3H-PZ) frontal cortex : Ki(3H-QNB) cerebellum
  a':b": 2.6
[9]
  b':b": 0.77
